{"source": "patent US10973794B2", "about": "“Dental composition and use” (CALSCIENCE INTERNATIONAL LTD., priority 2015, dated 2021)", "key": {"[1]": {"system": "Sirtuin 3 (SIRT3)", "test": "Taqman Real Time-PCR expression of Sirtuin 3 in HFFs with and without H2O2 stress-induced premature senescence", "format": "cell-based, human", "settings": "following oxidant challenge, FIG. 7", "description": "(§1) The following results relate to the analysis of senescence tests on 1,5-Dicaffeoylquinic Acid (1,5-DCQA). FIG. 8 relates to 1,4-DCQA. The experiments were conducted using human foreskin fibroblasts (HFFs).\n(§2) In the following experiments, HFFs were challenged for a period of two hours with 150 μM hydrogen peroxide (H2O2), to stimulate premature senescence in the presence and absence of 1,5-DCQA (1/1000 dilution), and subsequently assayed by Taqman Real Time-PCR for the expression of key senescence associated genes.\n(§3) These genes are involved in cell cycle regulation and mitochondrial stress responses. Challenge with a near lethal level of oxidant stress typically induces an increase in SIRT2 and decrease in SIRT3 expression. […] This is indicative of each having a potential for stimulating cell proliferation in the absence of oxidant challenge.\n(§4) The results shown in Table 2 and FIGS. 2 to 7 were generated using the polymerase chain reaction (PCR), wherein the dCt and ddCT values are results used in statistical analysis. The abbreviation dCt relates to “delta cycle threshold” and the abbreviation ddCt relates to “delta delta cycle threshold”. In these experiments, HPRT (hypoxanthine phosphoribosyltransferase, a protein from the HPRT-1 gene) was used as a control."}, "[2]": {"system": "XRCC5", "test": "Taqman Real Time-PCR expression of XRCC5 in HFFs with and without H2O2 stress-induced premature senescence", "format": "cell-based, human", "settings": "with and without 150 μM H2O2, FIG. 4", "description": "as §1, §2\nXRCC5 is a double strand break repair protein.\nas §4"}, "[3]": {"system": "human foreskin fibroblasts (HFFs)", "test": "WST-1 Cell Proliferation Assay", "format": "cell-based", "description": "as §1\nThe WST-1 Cell Proliferation Assay provides a sensitive and accurate assay for cell proliferation and cytotoxicity (cell viability). The WST assay is based on the cleavage of the tetrazolium salt WST-1 to formazan by cellular mitochondrial dehydrogenases. Expansion in the number of viable cells results in an increase in the overall activity of the mitochondrial dehydrogenases in the sample. The augmentation in enzyme activity results in an increase in the amount of formazan dye formed. The formazan dye produced by viable cells was quantified by a multi-well spectrophotometer by measuring the absorbance of the dye solution at 440 nm. The compound provided was tested in the WST assay over a range of dilutions. […] The results of the assay show the standard deviation (SD) for 1,5-DCQA and the control, and the mean values for 1,5-DCQA and the control."}, "[4]": {"system": "Sirtuin 2 (SIRT2)", "test": "Taqman Real Time-PCR expression of Sirtuin 2 in HFFs with and without H2O2 stress-induced premature senescence", "format": "cell-based, human", "settings": "without stress, FIG. 6", "description": "as §1, §2, §3, §4"}, "[5]": {"system": "p16", "test": "Taqman Real Time-PCR expression of p16 in HFFs with and without H2O2 stress-induced premature senescence", "format": "cell-based, human", "description": "as §1, §2, §4"}}, "data": [{"compound": "O=C(/C=C/c1ccc(O)c(O)c1)O[C@@H]1C[C@](OC(=O)/C=C/c2ccc(O)c(O)c2)(C(=O)O)C[C@@H](O)[C@H]1O", "note": "[1,5-DCQA, 1,5-Dicaffeoylquinic Acid]", "values": [{"measurement": "change in SIRT3 expression", "setting": "[1]", "result": "increase in SIRT3 expression"}, {"measurement": "expression of XRCC5 in comparison with the control data set", "setting": "[2]", "result": "substantially unaltered expression"}, {"measurement": "effect on cell viability (WST assay)", "setting": "[3]; 1/1000 and 2/1000 dilutions", "result": "beneficial to cell viability"}, {"measurement": "Mean (WST-1 assay, absorbance at 440 nm)", "setting": "[3]; dilution 1/1000", "result": 0.916}, {"measurement": "Mean (WST-1 assay, absorbance at 440 nm)", "setting": "[3]; dilution 2/1000", "result": 0.868}, {"measurement": "Mean (WST-1 assay, absorbance at 440 nm)", "setting": "[3]; dilution 3/1000", "result": 0.717}, {"measurement": "Mean (WST-1 assay, absorbance at 440 nm)", "setting": "[3]; dilution 4/1000", "result": 0.363}, {"measurement": "Mean (WST-1 assay, absorbance at 440 nm)", "setting": "[3]; dilution 5/1000", "result": 0.178}, {"measurement": "Mean (WST-1 assay, absorbance at 440 nm)", "setting": "[3]; dilution 6/1000", "result": 0.300}, {"measurement": "Mean (WST-1 assay, absorbance at 440 nm)", "setting": "[3]; dilution 7/1000", "result": 0.419}, {"measurement": "Mean (WST-1 assay, absorbance at 440 nm)", "setting": "[3]; dilution 8/1000", "result": 0.196}, {"measurement": "Mean (WST-1 assay, absorbance at 440 nm)", "setting": "[3]; dilution 9/1000", "result": 0.115}, {"measurement": "Mean (WST-1 assay, absorbance at 440 nm)", "setting": "[3]; dilution 10/1000", "result": 0.069}, {"measurement": "change in SIRT2 expression", "setting": "[4]", "result": "significant decrease in SIRT2 expression"}, {"measurement": "effect on p16 expression following oxidant challenge", "setting": "[5]; 150 μM H2O2, FIG. 2", "result": "excellent protection from oxidant challenge"}, {"measurement": "effect on p16 expression in untreated cells", "setting": "[5]; no H2O2, FIG. 2", "result": "no stress effect on untreated cells"}]}]}
